Experimental data: DBAASP
Values after ≈ are worked out from the molar mass of the structure shown.

Assays:
Assay in all cases: ≥ marks a high value that may be exact or a test limit, other limits are often not marked, values filed in µg/mL are converted to µM
[1] = test system: Acinetobacter baumannii KCTC 2508
Acinetobacter baumannii = test system: Acinetobacter baumannii
[2] = test system: Botrytis cinerea DSM Z877
[3] = test system: Fusarium oxysporum DSM Z62306
[4] = test system: Acinetobacter baumannii ATCC 19606
[5] = test system: Enterobacter cloacae ATCC 49141
[6] = test system: Enterococcus faecalis ATCC 19433
[7] = test system: Escherichia coli ATCC 25922
Escherichia coli D21 = test system: Escherichia coli D21
[8] = test system: Pseudomonas aeruginosa ATCC 27853
[9] = test system: Staphylococcus aureus II ATCC 6538P
Alternaria alternata = test system: Alternaria alternata
Botrytis cinerea = test system: Botrytis cinerea
Cladosporium herbarum = test system: Cladosporium herbarum
[10] = test system: Clavibacter michiganensis subsp. michiganensis DSM 46294
[11] = test system: Pectobacterium carotovorum subsp. carotovorum DSM 30168
[12] = test system: Pseudomonas corrugata DSM 7228
[13] = test system: Pseudomonas syringae pv. syringae DSM 10604
[14] = test system: Pseudomonas syringae pv. tomato DC3000
[15] = test system: Xanthomonas vesicatoria DSM 50861
Histophilus somni = test system: Histophilus somni
Mannheimia haemolytica = test system: Mannheimia haemolytica
Pasteurella multocida = test system: Pasteurella multocida
[16] = test system: Glaesserella parasuis ATCC 19417
Glaesserella parasuis = test system: Glaesserella parasuis
[17] = test system: Candida albicans ATCC 37092
[18] = test system: Staphylococcus aureus ATCC 29213
[19] = test system: Escherichia coli IFO 3972
[20] = test system: Staphylococcus aureus FDA 209P
[21] = test system: Corynebacterium glutamicum ATCC 13032
Escherichia coli HB101 = test system: Escherichia coli HB101
[22] = test system: Staphylococcus aureus ATCC 9144

`CC[C@H](C)[C@H](NC(=O)CNC(=O)[C@H](CC(C)C)NC(=O)[C@H](CCCN=C(N)N)NC(=O)[C@H](CCCCN)NC(=O)[C@H](Cc1ccccc1)NC(=O)[C@@H](NC(=O)[C@H](CCCCN)NC(=O)[C@H](CCCCN)NC(=O)[C@H](C)N)C(C)C)C(=O)NCC(=O)N[C@@H](CCCCN)C(=O)N[C@@H](Cc1ccccc1)C(=O)N[C@@H](CC(C)C)C(=O)N[C@@H](Cc1cnc[nH]1)C(=O)N[C@@H](CO)C(=O)N[C@@H](C)C(=O)N[C@@H](CCCCN)C(=O)N[C@@H](CCCCN)C(=O)N[C@@H](Cc1ccccc1)C(N)=O` [AKKVFKRLGIGKFLHSAKKF] gave an MIC [1] of 6.25 µM (≈ 14.4 µg/mL) and an MIC (Acinetobacter baumannii) of 6.25 µM (≈ 14.4 µg/mL).
Compound `CSCC[C@H](NC(=O)[C@@H](NC(=O)[C@@H](NC(=O)[C@H](CCCCN)NC(=O)[C@H](C)N)C(C)C)[C@@H](C)O)C(=O)N[C@H](C(=O)N[C@@H](CS)C(=O)N[C@@H](CO)C(=O)N[C@@H](C)C(=O)N[C@@H](CO)C(=O)O)[C@@H](C)O` [AKVTMTCSAS] has an MIC [2] of at least 120 µM and an MIC [3] of at least 100 µM.
With `CC(C)C[C@H](NC(=O)[C@H](Cc1cnc[nH]1)NC(=O)[C@H](Cc1cnc[nH]1)NC(=O)[C@H](CC(C)C)NC(=O)[C@H](CC(C)C)NC(=O)[C@H](Cc1cnc[nH]1)NC(=O)[C@H](Cc1cnc[nH]1)NC(=O)[C@H](CC(C)C)NC(=O)[C@H](CC(C)C)NC(=O)[C@H](Cc1cnc[nH]1)NC(=O)[C@H](Cc1cnc[nH]1)NC(=O)[C@H](CC(C)C)NC(=O)[C@H](C)NC(=O)[C@H](CC(=O)O)NC(=O)[C@@H](N)CC(=O)O)C(=O)O` [DDALHHLLHHLLHHL] the MIC [4] was over 100 µM, the MIC [5] was at least 100 µM and the MIC [6] was at least 100 µM. For the same compound, the MIC [7] was over 100 µM, the MIC (Escherichia coli D21) was at least 100 µM and the MIC [8] was 100 µM (≈ 182 µg/mL). For the same compound, the MIC [9] was at least 100 µM.
`CC(C)C[C@H](NC(=O)[C@H](CCCCN)NC(=O)[C@H](Cc1cnc[nH]1)NC(=O)[C@H](CCCCN)NC(=O)[C@H](CC(C)C)NC(=O)[C@H](C)NC(=O)[C@H](CCCCN)NC(=O)[C@H](C)NC(=O)[C@H](CC(C)C)NC(=O)[C@H](C)NC(=O)[C@H](CCCN=C(N)N)NC(=O)[C@@H](N)CC(C)C)C(N)=O` [LRALAKALKHKL] was tested, and the MIC (Alternaria alternata) was at least 73.4 µM, the MIC (Botrytis cinerea) was at least 73.4 µM and the MIC (Cladosporium herbarum) was 14.7 µM (≈ 20 µg/mL). The MIC [10] was 29.4 µM (≈ 40 µg/mL), the MIC [11] was 29.4 µM (≈ 40 µg/mL) and the MIC [12] was 7.34 µM (≈ 9.99 µg/mL). For the same compound, the MIC [13] was 29.4 µM (≈ 40 µg/mL), the MIC [14] was 3.67 µM (≈ 5 µg/mL) and the MIC [15] was 29.4 µM (≈ 40 µg/mL).
In the case of `CC[C@H](C)[C@@H]1NC(=O)CNC(=O)[C@H](CCCCN)NC(=O)[C@H](CC(N)=O)NC(=O)[C@H](CCCN=C(N)N)NC(=O)[C@H](C(C)C)NC(=O)[C@@H](NC(=O)[C@H](CO)NC(=O)[C@@H](NC(=O)[C@@H]2CCCN2C(=O)[C@@H](N)CC(N)=O)C(C)C)CSSC[C@@H]2NC(=O)[C@H](CCCCN)NC(=O)[C@H](C(C)C)NC(=O)[C@H](C)NC(=O)[C@H](CCCN=C(N)N)NC(=O)CNC(=O)[C@H](C(C)C)NC(=O)[C@@H]3CSSC[C@H](NC1=O)C(=O)N[C@@H](C(C)C)C(=O)N1CCC[C@H]1C(=O)N[C@@H]([C@@H](C)CC)C(=O)N[C@@H](CCCN=C(N)N)C(=O)N[C@@H](CSSC[C@@H](C(=O)N[C@@H](CCCN=C(N)N)C(=O)N[C@@H](CCCCN)C(=O)N[C@@H](CCCCN)C(=O)O)NC2=O)C(=O)N1CCC[C@H]1C(=O)NCC(=O)N[C@@H](CC(N)=O)C(=O)N[C@@H](CCSC)C(=O)N[C@@H](CCCCN)C(=O)N[C@@H](CCC(N)=O)C(=O)N[C@@H]([C@@H](C)CC)C(=O)NCC(=O)N[C@@H]([C@@H](C)O)C(=O)N3` [NPVSCVRNKGICVPIRCPGNMKQIGTCVGRAVKCCRKK], the MIC (Histophilus somni) is reported as 1.14 µM (≈ 4.69 µg/mL), the MIC (Mannheimia haemolytica) is reported as 0.753 µM (≈ 3.1 µg/mL) and the MIC (Pasteurella multocida) is reported as 0.558 µM (≈ 2.3 µg/mL).
For `C[C@H](NC(=O)[C@H](Cc1ccccc1)NC(=O)[C@H](CS)NC(=O)[C@H](Cc1c[nH]c2ccccc12)NC(=O)[C@H](CCCN=C(N)N)NC(=O)[C@@H](N)CC(N)=O)C(=O)NCC(=O)N[C@@H](CC(=O)O)C(=O)N[C@@H](CC(=O)O)C(=O)O` [NRWCFAGDD], the MIC [16] was 18.5 µM (≈ 20 µg/mL) and the MIC (Glaesserella parasuis) was 13.1 µM (≈ 14.1 µg/mL).
`CC(C)C[C@H](NC(=O)[C@@H]1CCCN1C(=O)[C@H](CCCN=C(N)N)NC(=O)[C@@H]1CCCN1)C(=O)N1CCC[C@H]1C(=O)N[C@@H](Cc1ccccc1)C(=O)N1CCC[C@H]1C(=O)N[C@@H](CCCN=C(N)N)C(=O)N1CCC[C@H]1C(=O)NCC(=O)O` [PRPLPFPRPG] showed an MIC [17] of at least 500 µM, an MIC [7] of over 500 µM and an MIC [18] of over 500 µM.
With `CC(C)C[C@H](NC(=O)[C@H](Cc1c[nH]c2ccccc12)NC(=O)[C@@H](NC(=O)[C@H](Cc1c[nH]c2ccccc12)NC(=O)[C@H](Cc1cnc[nH]1)NC(=O)[C@@H](N)Cc1c[nH]c2ccccc12)[C@@H](C)O)C(=O)O` [WHWTWL] the MIC [19] was at least 500 µM and the MIC [20] was at least 500 µM.
Compound `CC[C@H](C)[C@H](NC(=O)[C@@H]1CCCN1C(=O)[C@H](CCCCN)NC(=O)[C@@H]1CCCN1C(=O)[C@H](CCCN=C(N)N)NC(=O)CNC(=O)[C@@H]1CCCN1C(=O)[C@H](Cc1ccccc1)NC(=O)[C@@H]1CCCN1C(=O)[C@H](CCCN=C(N)N)NC(=O)[C@@H]1CCCN1C(=O)[C@H](CCCN=C(N)N)NC(=O)CNC(=O)[C@@H]1CCCN1C(=O)[C@H](CO)NC(=O)[C@@H]1CCCN1C(=O)[C@@H](N)Cc1c[nH]c2ccccc12)C(=O)N[C@@H](Cc1ccccc1)C(=O)N[C@@H](CCCN=C(N)N)C(=O)N1CCC[C@H]1C(=O)N[C@@H](CCCN=C(N)N)C(=O)O` [WPSPGRPRPFPGRPKPIFRPR] has an MIC [21] of 3.1 µM (≈ 7.75 µg/mL), an MIC [7] of 35.4 µM (≈ 88.4 µg/mL) and an MIC (Escherichia coli HB101) of 12.5 µM (≈ 31.2 µg/mL). For the same compound, the MIC [8] was 100 µM (≈ 250 µg/mL) and the MIC [22] was at least 100 µM.
